Values quoted from earlier work, collected in patent publication US20080089861A1, “Combination therapy for treatment of demyelinating conditions” (priority 2006, published 2008).
“Also recorded” adds a separate entry of the source.

Conditions: human

Compound: CC12CC3CC(C)(C1)CC(N)(C3)C2 [Memantine, 1-amino-3,5-dimethyladamantane]
- Dose Dependent Tox: Dose escalation; also recorded: hallucination
